The record followed here is US20220062383A1, “REGULATION OF A FOREIGN BODY RESPONSE” (THE JOHNS HOPKINS UNIVERSITY, priority 2019, published 2022).

For assay [1], the system named is fibrosis around PCL implants (volumetric muscle loss model). Briefly: Histology and immunofluorescence (αSMA, picrosirius red) of fibrosis around PCL implants after treatment. Type of assay: in vivo, C57BL/6 mice. The settings on record: PCL implant; treatment 4 weeks after implantation; tissue at 6 weeks; vs isotype or vehicle control. As to the method:
All animal procedures were performed in accordance with an approved JHU IACUC protocol. Female mice were aged six to eight weeks-old. Several strains were utilized, including wild type C57BL/6j (Jackson Laboratories, Stock #00064), Rag2/OT-II (Taconic Stock #11490), IL17A-/- and IL17RA-/- (courtesy of Dr. Yoichiro Iwakura, University of Tokyo, Tokyo, Japan and Dr. Tomas Mustelin, Amgen, Seattle, respectively). Defects in muscle for material implantation were created as previously described (68). The resulting bilateral muscle defects were filled with 30 mg of a synthetic material. Synthetic materials tested include PCL (particulate, Mn=50000 g/mol, mean particle size<600 μm, Polysciences), ultrahigh molecular weight PE (particulate, Mn=5000 k g/mol, mean particle size=150 μm, Goodfellow), medical graded Silicone (sheet, Summit Medical), PEG hydrogels. PEG hydrogels were made with polyethylene glycol-diacrylate (PEG-DA, Mn=3400). PEG-DA (Polysciences) in PBS at 10% w/v concentration was mixed with photoinitiator (Irgacure 2959 solubilized to 10% w/v in 70% ethanol) to a final concentration of 0.05%. A 50 μL volume solution was cast onto each well of a flat bottom 96 wells plate. The solution was photocrosslinked via UV light for 30 mins to form a hydrogel sheet. […] Co-administration of anti-I[…] and senolytic treatment were also evaluated. […]

Assay [2] concerns foreign body response to PCL implants (volumetric muscle loss model). In words: qRT-PCR gene expression in tissue of PCL-implanted mice after IL17A/F NAb and/or senolytic treatment. The assay is classed as in vivo, C57BL/6 mice. Conditions: PCL implant. As to the method:
All animal procedures were performed in accordance with an approved JHU IACUC protocol. Female mice were aged six to eight weeks-old. Several strains were utilized, including wild type C57BL/6j (Jackson Laboratories, Stock #00064), Rag2/OT-II (Taconic Stock #11490), IL17A-/- and IL17RA-/- (courtesy of Dr. Yoichiro Iwakura, University of Tokyo, Tokyo, Japan and Dr. Tomas Mustelin, Amgen, Seattle, respectively). Defects in muscle for material implantation were created as previously described (68). The resulting bilateral muscle defects were filled with 30 mg of a synthetic material. Synthetic materials tested include PCL (particulate, Mn=50000 g/mol, mean particle size<600 μm, Polysciences), ultrahigh molecular weight PE (particulate, Mn=5000 k g/mol, mean particle size=150 μm, Goodfellow), medical graded Silicone (sheet, Summit Medical), PEG hydrogels. PEG hydrogels were made with polyethylene glycol-diacrylate (PEG-DA, Mn=3400). PEG-DA (Polysciences) in PBS at 10% w/v concentration was mixed with photoinitiator (Irgacure 2959 solubilized to 10% w/v in 70% ethanol) to a final concentration of 0.05%. A 50 μL volume solution was cast onto each well of a flat bottom 96 wells plate. The solution was photocrosslinked via UV light for 30 mins to form a hydrogel sheet. Both silicone and PEG hydrogels were morselized into particles with a scalpel and placed into the defect. Control implants were injected with 50 μL of PBS (as a no implant control). All materials were UV sterilized prior to use. Directly after surgery, mice were given subcutaneous carprofen (Rimadyl®, Zoetis) at 5 mg/kg for pain relief. Mice were euthanized, and their implants were extracted at different time points: 1, 3, 6, or 12-weeks post-surgery. Additional modes of implantation were subcutaneous and intra-muscular injection. Briefly, synthetic materials were implanted subcutaneously (30 mg) on both flanks of the mice, or injected directly into the quadricep muscles through a 16 G syringe (5 mg of materials). Total RNA was isolated from whole tissue using TRIzol reagent and Qiagen's RNeasy kits. qRT-PCR was performed using Power SYBR Green Master Mix (Applied Biosystems) or TaqMan Gene Expression Master Mix (Applied Biosystems) according to manufacturer's instructions. Briefly, 2 μg of total RNA was used to synthesize cDNA using Superscript IV VILO Master Mix (ThermoFisher Scientific). The cDNA concentration was set to 50 ng/well (in a total volume of 20 μL PCR reaction). The qRT-PCR reactions were performed on the StepOne Plus Real-Time PCR System (ThermoFisher Scientific) using manufacturer recommended settings for quantitative and relative expression. Mice received 100 μl intraperitoneal (IP) injections of anti-IL17A (100 μg/ml, Cat #P13705.15) and anti-IL17F (100 μg/ml, Cat #P56220.17) (provided by Amgen) or isotype control (rat IgG2a, ThermoFisher Scientific, Cat #02-9688) every other day for a week. IL6 blocking antibody was administrated at 100 μg/ml (BioXCell, clone MP5-20F3) per mouse per day for 5 consecutive days. For senolytic treatment, mice received IP and intramuscular (IM) injections of Navitoclax (100 mg/kg, Selleckchem, Cat #HY-10087) for 5 consecutive days or vehicle control (5% DMSO, 3% Tween 80 in PBS). Co-administration of anti-I[…] and senolytic treatment were also evaluated. All mice received treatments at 4-weeks post-surgery for a total of 5 injections (1 injection per day per mouse), and were harvested in the following 2 weeks. The nCounter differential gene expression system was used to assess readable transcripts via the nanoString PanCancer Immune Profiling Panel. We utilized the nSolver software (version 3.0, nanoString Technologies, Inc.). All analyses of qRT-PCR data utilized the Livak Method, wherein ΔΔCt values are calculated, and then reported as relative quantification values calculated by […] (69). Treatment data points are normalized to either healthy or saline treated controls. β2M was utilized as the reference gene. […]

[3] abbreviates: treatment 4 weeks after implantation, tissue at 6 weeks.
The mark [4] stands for this setting: treatment at 4 weeks, 6 weeks after implantation.

For the compound `CC1(C)CCC(c2ccc(Cl)cc2)=C(CN2CCN(c3ccc(C(=O)NS(=O)(=O)c4ccc(N[C@H](CCN5CCOCC5)CSc5ccccc5)c(S(=O)(=O)C(F)(F)F)c4)cc3)CC2)C1` [Navi, Navitoclax], in assay [1], the αSMA immunofluorescence entry was “reduced”. In assay [2] (one week after treatment, 6 weeks after implantation, p<0.0001), the “p16INK4a gene expression (senolysis)” value was “significantly decreased”. For the same compound, the “Il17a (IL17) gene expression” value in assay [2] (treatment 4 weeks after implantation, 5 injections, tissue at 6 weeks, vs isotype or vehicle control) is reported as “decreased”. Further, in assay [2] (setting [3]), the “Collagen I gene expression” value is listed as “decreased” and the Tgfβ gene expression entry is on record as “decreased”. In addition, in assay [2] (setting [4]), the Il16 gene expression result is recorded as “decreased”, the S100a4 gene expression entry is on record as “decreased” and the “collagen III gene expression” value is reported as “decreased”.
